# According to the NIST ThermoML archive (doi:10.1021/acs.jced.5b00934):
# ± gives the expanded uncertainty stated by the source.
# Details: Liquid, Vibrating tube method
compound,measurement,setting,value
CCC(C)O (stereo not drawn) [butan-2-ol],mass density,"303.15 K, 20032 kPa",813.3 ± 0.9 kg/m3
same,mass density,"303.15 K, 21980 kPa",814.6 ± 0.9 kg/m3
same,mass density,"303.15 K, 25089 kPa",816.7 ± 0.9 kg/m3
same,mass density,"303.15 K, 27989 kPa",818.6 ± 0.9 kg/m3
same,mass density,"303.15 K, 30014 kPa",819.9 ± 0.9 kg/m3
same,mass density,"303.15 K, 32951 kPa",821.7 ± 0.9 kg/m3
same,mass density,"303.15 K, 33007 kPa",821.7 ± 0.9 kg/m3
same,mass density,"303.15 K, 33998 kPa",822.3 ± 0.9 kg/m3
same,mass density,"303.15 K, 38048 kPa",824.8 ± 0.9 kg/m3
same,mass density,"303.15 K, 40020 kPa",826 ± 0.9 kg/m3
same,mass density,"303.15 K, 42004 kPa",827.1 ± 0.9 kg/m3
same,mass density,"303.15 K, 44999 kPa",828.9 ± 0.9 kg/m3
same,mass density,"303.15 K, 45386 kPa",829.1 ± 0.9 kg/m3
same,mass density,"303.15 K, 48182 kPa",830.7 ± 0.9 kg/m3
same,mass density,"303.15 K, 50063 kPa",831.8 ± 1 kg/m3
same,mass density,"303.15 K, 51975 kPa",832.8 ± 1 kg/m3
same,mass density,"303.16 K, 469 kPa",798.5 ± 0.8 kg/m3
same,mass density,"303.16 K, 7034 kPa",803.7 ± 0.8 kg/m3
same,mass density,"303.16 K, 9943 kPa",806 ± 0.9 kg/m3
same,mass density,"303.16 K, 11919 kPa",807.5 ± 0.9 kg/m3
same,mass density,"303.16 K, 15070 kPa",809.8 ± 0.9 kg/m3
same,mass density,"303.16 K, 31992 kPa",821.1 ± 0.9 kg/m3
same,mass density,"303.16 K, 35073 kPa",823 ± 0.9 kg/m3
same,mass density,"303.16 K, 55053 kPa",834.5 ± 1 kg/m3
same,mass density,"303.16 K, 57971 kPa",836.1 ± 1 kg/m3
same,mass density,"303.16 K, 59945 kPa",837.1 ± 1 kg/m3
same,mass density,"303.16 K, 62023 kPa",838.2 ± 1 kg/m3
same,mass density,"303.16 K, 64910 kPa",839.7 ± 1 kg/m3
same,mass density,"303.16 K, 66100 kPa",840.3 ± 1 kg/m3
same,mass density,"308.15 K, 99 kPa",793.9 ± 0.8 kg/m3
same,mass density,"308.15 K, 284 kPa",794.1 ± 0.8 kg/m3
same,mass density,"308.15 K, 499 kPa",794.3 ± 0.8 kg/m3
same,mass density,"308.15 K, 1030 kPa",794.8 ± 0.8 kg/m3
same,mass density,"308.15 K, 2012 kPa",795.6 ± 0.8 kg/m3
same,mass density,"308.15 K, 3016 kPa",796.4 ± 0.8 kg/m3
same,mass density,"308.15 K, 10011 kPa",802 ± 0.9 kg/m3
same,mass density,"308.15 K, 17937 kPa",808 ± 0.9 kg/m3
same,mass density,"308.15 K, 31948 kPa",817.5 ± 0.9 kg/m3
same,mass density,"308.15 K, 32957 kPa",818.2 ± 0.9 kg/m3
same,mass density,"308.15 K, 33017 kPa",818.2 ± 0.9 kg/m3
same,mass density,"308.15 K, 34003 kPa",818.8 ± 0.9 kg/m3
same,mass density,"308.15 K, 38001 kPa",821.3 ± 0.9 kg/m3
same,mass density,"308.15 K, 45022 kPa",825.5 ± 0.9 kg/m3
same,mass density,"308.15 K, 50010 kPa",828.4 ± 1 kg/m3
same,mass density,"308.15 K, 52016 kPa",829.5 ± 1 kg/m3
same,mass density,"308.15 K, 54994 kPa",831.2 ± 1 kg/m3
same,mass density,"308.15 K, 58005 kPa",832.8 ± 1 kg/m3
same,mass density,"308.15 K, 60029 kPa",833.9 ± 1 kg/m3
same,mass density,"308.16 K, 919 kPa",794.6 ± 0.8 kg/m3
same,mass density,"308.16 K, 5009 kPa",798.1 ± 0.8 kg/m3
same,mass density,"308.16 K, 7020 kPa",799.7 ± 0.8 kg/m3
same,mass density,"308.16 K, 9036 kPa",801.3 ± 0.8 kg/m3
same,mass density,"308.16 K, 11963 kPa",803.6 ± 0.9 kg/m3
same,mass density,"308.16 K, 15014 kPa",805.8 ± 0.9 kg/m3
same,mass density,"308.16 K, 19942 kPa",809.4 ± 0.9 kg/m3
same,mass density,"308.16 K, 22125 kPa",810.9 ± 0.9 kg/m3
same,mass density,"308.16 K, 25007 kPa",813 ± 0.9 kg/m3
same,mass density,"308.16 K, 28001 kPa",815 ± 0.9 kg/m3
same,mass density,"308.16 K, 30046 kPa",816.3 ± 0.9 kg/m3
same,mass density,"308.16 K, 35061 kPa",819.4 ± 0.9 kg/m3
same,mass density,"308.16 K, 40051 kPa",822.5 ± 0.9 kg/m3
same,mass density,"308.16 K, 41974 kPa",823.7 ± 0.9 kg/m3
same,mass density,"308.16 K, 47997 kPa",827.2 ± 0.9 kg/m3
same,mass density,"308.16 K, 61986 kPa",835 ± 1 kg/m3
same,mass density,"308.16 K, 64977 kPa",836.6 ± 1 kg/m3
same,mass density,"308.16 K, 66129 kPa",837.2 ± 1 kg/m3
same,mass density,"313.15 K, 97 kPa",789.4 ± 0.8 kg/m3
same,mass density,"313.15 K, 331 kPa",789.6 ± 0.8 kg/m3
same,mass density,"313.15 K, 521 kPa",789.8 ± 0.8 kg/m3
same,mass density,"313.15 K, 925 kPa",790.2 ± 0.8 kg/m3
same,mass density,"313.15 K, 1936 kPa",791 ± 0.8 kg/m3
same,mass density,"313.15 K, 2964 kPa",791.9 ± 0.8 kg/m3
same,mass density,"313.15 K, 10109 kPa",797.8 ± 0.9 kg/m3
same,mass density,"313.15 K, 12051 kPa",799.4 ± 0.9 kg/m3
same,mass density,"313.15 K, 22039 kPa",806.9 ± 0.9 kg/m3
same,mass density,"313.15 K, 24988 kPa",809 ± 0.9 kg/m3
same,mass density,"313.15 K, 27962 kPa",811 ± 0.9 kg/m3
same,mass density,"313.15 K, 30012 kPa",812.4 ± 0.9 kg/m3
same,mass density,"313.15 K, 32043 kPa",813.7 ± 0.9 kg/m3
same,mass density,"313.15 K, 33039 kPa",814.4 ± 0.9 kg/m3
same,mass density,"313.15 K, 33084 kPa",814.4 ± 0.9 kg/m3
same,mass density,"313.15 K, 37907 kPa",817.5 ± 0.9 kg/m3
same,mass density,"313.15 K, 42039 kPa",820 ± 0.9 kg/m3
same,mass density,"313.15 K, 50005 kPa",824.8 ± 1 kg/m3
same,mass density,"313.15 K, 58031 kPa",829.3 ± 1 kg/m3
same,mass density,"313.16 K, 1053 kPa",790.3 ± 0.8 kg/m3
same,mass density,"313.16 K, 5002 kPa",793.7 ± 0.8 kg/m3
same,mass density,"313.16 K, 6986 kPa",795.3 ± 0.8 kg/m3
same,mass density,"313.16 K, 8976 kPa",797 ± 0.8 kg/m3
same,mass density,"313.16 K, 14996 kPa",801.7 ± 0.9 kg/m3
same,mass density,"313.16 K, 17980 kPa",803.9 ± 0.9 kg/m3
same,mass density,"313.16 K, 20012 kPa",805.4 ± 0.9 kg/m3
same,mass density,"313.16 K, 34096 kPa",815 ± 0.9 kg/m3
same,mass density,"313.16 K, 35045 kPa",815.6 ± 0.9 kg/m3
same,mass density,"313.16 K, 40135 kPa",818.9 ± 0.9 kg/m3
same,mass density,"313.16 K, 45006 kPa",821.8 ± 0.9 kg/m3
same,mass density,"313.16 K, 48081 kPa",823.7 ± 1 kg/m3
same,mass density,"313.16 K, 52025 kPa",826 ± 1 kg/m3
same,mass density,"313.16 K, 55030 kPa",827.7 ± 1 kg/m3
same,mass density,"313.16 K, 60001 kPa",830.4 ± 1 kg/m3
same,mass density,"313.16 K, 62068 kPa",831.6 ± 1 kg/m3
same,mass density,"313.16 K, 65053 kPa",833.2 ± 1 kg/m3
same,mass density,"313.16 K, 66058 kPa",833.7 ± 1 kg/m3
same,mass density,"318.15 K, 102 kPa",784.8 ± 0.8 kg/m3
same,mass density,"318.15 K, 288 kPa",785 ± 0.8 kg/m3
same,mass density,"318.15 K, 909 kPa",785.5 ± 0.8 kg/m3
same,mass density,"318.15 K, 9293 kPa",792.8 ± 0.9 kg/m3
same,mass density,"318.15 K, 12039 kPa",795.1 ± 0.9 kg/m3
same,mass density,"318.15 K, 14977 kPa",797.4 ± 0.9 kg/m3
same,mass density,"318.15 K, 17998 kPa",799.8 ± 0.9 kg/m3
same,mass density,"318.15 K, 20024 kPa",801.3 ± 0.9 kg/m3
same,mass density,"318.15 K, 24907 kPa",804.9 ± 0.9 kg/m3
same,mass density,"318.15 K, 27973 kPa",807.1 ± 0.9 kg/m3
same,mass density,"318.15 K, 30001 kPa",808.5 ± 0.9 kg/m3
same,mass density,"318.15 K, 32873 kPa",810.4 ± 0.9 kg/m3
same,mass density,"318.15 K, 33033 kPa",810.4 ± 0.9 kg/m3
same,mass density,"318.15 K, 45210 kPa",818.3 ± 0.9 kg/m3
same,mass density,"318.15 K, 48072 kPa",820.1 ± 1 kg/m3
same,mass density,"318.15 K, 49996 kPa",821.2 ± 1 kg/m3
same,mass density,"318.15 K, 57926 kPa",825.8 ± 1 kg/m3
same,mass density,"318.16 K, 476 kPa",785.1 ± 0.8 kg/m3
same,mass density,"318.16 K, 1004 kPa",785.6 ± 0.8 kg/m3
same,mass density,"318.16 K, 1987 kPa",786.5 ± 0.8 kg/m3
same,mass density,"318.16 K, 3033 kPa",787.4 ± 0.8 kg/m3
same,mass density,"318.16 K, 5011 kPa",789.2 ± 0.8 kg/m3
same,mass density,"318.16 K, 6978 kPa",790.9 ± 0.8 kg/m3
same,mass density,"318.16 K, 10006 kPa",793.4 ± 0.9 kg/m3
same,mass density,"318.16 K, 22040 kPa",802.8 ± 0.9 kg/m3
same,mass density,"318.16 K, 32063 kPa",809.9 ± 0.9 kg/m3
same,mass density,"318.16 K, 33988 kPa",811.1 ± 0.9 kg/m3
same,mass density,"318.16 K, 34997 kPa",811.8 ± 0.9 kg/m3
same,mass density,"318.16 K, 38029 kPa",813.7 ± 0.9 kg/m3
same,mass density,"318.16 K, 39963 kPa",815 ± 0.9 kg/m3
same,mass density,"318.16 K, 42133 kPa",816.4 ± 0.9 kg/m3
same,mass density,"318.16 K, 51984 kPa",822.4 ± 1 kg/m3
same,mass density,"318.16 K, 54987 kPa",824.1 ± 1 kg/m3
same,mass density,"318.16 K, 60004 kPa",827 ± 1 kg/m3
same,mass density,"318.16 K, 62005 kPa",828.1 ± 1 kg/m3
same,mass density,"318.16 K, 65012 kPa",829.7 ± 1 kg/m3
same,mass density,"318.16 K, 66081 kPa",830.3 ± 1 kg/m3
same,mass density,"323.15 K, 539 kPa",780.5 ± 0.8 kg/m3
same,mass density,"323.15 K, 1027 kPa",781 ± 0.8 kg/m3
same,mass density,"323.15 K, 5007 kPa",784.7 ± 0.8 kg/m3
same,mass density,"323.15 K, 7056 kPa",786.5 ± 0.8 kg/m3
same,mass density,"323.15 K, 9085 kPa",788.3 ± 0.9 kg/m3
same,mass density,"323.15 K, 10245 kPa",789.3 ± 0.9 kg/m3
same,mass density,"323.15 K, 12118 kPa",790.8 ± 0.9 kg/m3
same,mass density,"323.15 K, 15027 kPa",793.2 ± 0.9 kg/m3
same,mass density,"323.15 K, 18033 kPa",795.6 ± 0.9 kg/m3
same,mass density,"323.15 K, 20133 kPa",797.2 ± 0.9 kg/m3
same,mass density,"323.15 K, 25015 kPa",800.9 ± 0.9 kg/m3
same,mass density,"323.15 K, 28096 kPa",803.1 ± 0.9 kg/m3
same,mass density,"323.15 K, 33113 kPa",806.7 ± 0.9 kg/m3
same,mass density,"323.15 K, 37980 kPa",809.9 ± 0.9 kg/m3
same,mass density,"323.15 K, 40058 kPa",811.2 ± 0.9 kg/m3
same,mass density,"323.15 K, 42026 kPa",812.5 ± 0.9 kg/m3
same,mass density,"323.15 K, 50034 kPa",817.5 ± 1 kg/m3
same,mass density,"323.15 K, 52055 kPa",818.7 ± 1 kg/m3
